Measurements reported in patent publication US20260207514A1, “Clofazimine Mini-Tablets for Treatment of Tuberculosis in Pediatrics” (Via Therapeutics, LLC, priority 2022, published 2026).
≈ marks a conversion by molar mass, not a printed value. Read-outs that look alike come from different tables or passages of the source.

Experiments:
[1] = Particle size distribution of milled powder by laser diffraction; type: physicochemical; conditions: jet-milled powder, RODOS 4 bar
Description: Clofazimine (CFZ) (Midas Pharma GmbH) was micronized by Lonza Group AG using a 10-inch spiral jet mill at 3 kg/hr feed rate and 100 psi grinding pressure. Particle size distribution of the milled powder was determined using a laser diffractor (HELOS, Sympatec GmbH) with RODOS dry powder disperser set at 4 bar dispersion pressure and 20% rotation.

[2] = physchem; type: physicochemical; conditions: thermodynamic from solid, read-out: CFZ saturation solubility
[3] = Stress testing of micronized CFZ with excipient blends (compatibility, HPLC assay and related substances); type: physicochemical
Description: Clofazimine degradation was assessed using the high pressure liquid chromatography (HPLC) method published in the United States Pharmacopeia monograph for the drug (U.S.P., 2021) The mobile phase consisted of a 65:35 mixture of acetonitrile and an aqueous buffer consisting of 4.5 g/L sodium dodecyl sulfate, 1.7 g/L tetrabutylammonium hydrogen sulfate and 21.8 g/L Na2HPO4 adjusted to pH 3.0. Flow rate was 1.0 mL/min and infection volume was 20 μL. A LiChromspher® RP-8 100 column (250×4.6, 5 μm) (Millipore Sigma) was used. Measurements were performed using an Agilent 1100 HPLC with diode array detector set at 280 nm. […] Hydrophobic PTFE 0.22 μm filters were used for sample filtration prior to analysis.
Stress testing of micronized CFZ in combination with commercially available tableting excipient blends was performed to establish potential mechanisms of drug degradation and streamline excipient selection for mini-tablet preparation. Two different blends were assessed: Prosolv® EasyTab SP (JRS Pharma) and Ludipress® (BASF).
Additionally, Eudragit® E PO was assessed, as a potential candidate for functional coating of the mini-tablets to prevent CFZ release in the saliva and subsequent staining of the mouth. Binary mixtures of micronized CFZ and excipient blends and micronized CFZ and Eudragit E PO were prepared at 1:1 weight ratios. Blends of CFZ with Prosolv EasyTab SP, Ludipress, or Eudragit E PO were left open or in closed HPDE vials and stored for 18 days at 70° C./20% relative humidity (RH) or 70° C./75% RH, which was the thermal equivalent of 6 months of storage. As a control, micronized CFZ alone and each excipient blend alone were stored open at each condition.
HPLC analysis was performed on day 0 for CFZ alone and CFZ with each excipient, as well as on day 18 for the same samples at each temperature and humidity condition. Assay values (% recovery) for all samples was determined by comparing peak area to a reference standard and correcting for sample water content measured by Karl Fischer titration method, and related substances were reported by relative retention time (RRT) to the reference CFZ peak.

[4] = 1 mg/kg per day, average 105.6 days, average age 5.8 years; cited from earlier work

With `CC(C)/N=c1\cc2n(-c3ccc(Cl)cc3)c3ccccc3nc-2cc1Nc1ccc(Cl)cc1` [CFZ, clofazimine] the X10 diameter [1] was 0.66 μm, the X50 diameter [1] was 1.47 μm and the X90 diameter [1] was 3.50 μm. The solubility ([2]; fassgf or other biorelevant, in FaSSGF) was 0.092 ± 0.004 µg/mL (≈ 0.194 µM), the solubility ([2]; fassgf or other biorelevant, in FeSSGF) was 20.1 ± 1.86 µg/mL (≈ 42.5 µM) and the solubility ([2]; fessif, in FeSSIF) was 14.9 ± 1.5 µg/mL (≈ 31.5 µM). The “Impurity (% Area) RRT 0.82” value ([3]; 70 C./20% RH, Open, 18 days) was 0.113 % Area, the “Impurity (% Area) RRT 0.88” value ([3]; 70 C./20% RH, Open, 18 days) was 0.117 % Area and the “Impurity (% Area) RRT 0.82” value ([3]; 70 C./75% RH, Open, 18 days) was 0.096 % Area. For the same compound, the “Impurity (% Area) RRT 0.88” value ([3]; 70 C./75% RH, Open, 18 days) was 0.126 % Area, the “Impurity (% Area) RRT 0.94” value ([3]; 70 C./75% RH, Open, 18 days) was <0.05 % Area and the “Impurity (% Area) RRT 0.82” value ([3]; Initial (day 0)) was 0.096 % Area. For the same compound, the “Impurity (% Area) RRT 0.88” value ([3]; Initial (day 0)) was 0.109 % Area and the adverse effects [4] was “limited to skin discoloration and gastrointestinal symptoms”.
